By AC50 is commonly meant the concentration at which the activity in the assay is half-maximal. One may read the IC50 as the concentration that inhibits the measured activity by half.

The subject of one series is HTT mRNA. Nature of the series: RT-qPCR splicing assay, HTT mRNA canonical (CJ) and alternative (AJ) junction. The class given is cell-based, human. Particulars: Homo sapiens; for AC50: HTT alternative junction mRNA, read-out: HTT AJ (increase in AJ mRNA, AC50). Summed up:
(§1)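 A673 or K562 cells treated 24 h at 37 °C with 11-point 3-fold dilutions (top final 10 uM, DMSO ≤0.25%). Lysates analysed by one-step RT-qPCR for canonical (CJ) and alternative-exon (AJ) junctions, normalized to GAPDH, GUSB or PPIA. ΔΔCt vs DMSO, RQ = 2^(−ΔΔCt), expressed as percentage response.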
For orientation: In qPCR the cycle at which signal appears reflects the starting amount.

A further series concerns MYB mRNA. Nature of the series: RT-qPCR splicing assay, MYB mRNA canonical (CJ) and alternative (AJ) junction. The class given is cell-based, human. The conditions noted are these: Homo sapiens; for AC50: MYB alternative junction mRNA, read-out: MYB AJ (increase in AJ mRNA, AC50). Summed up: as §1
The test system of a further series is HTT. Nature of the series: HiBiT protein abundance assay, HTT (K562 HiBiT knock-in). It is filed as cell-based, human. Particulars: HiBiT knock-in K562 cells, 24 hours, top dose 10 μM. Summed up: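 K562 HiBiT knock-in, 24 h, 37 °C, top 10 μM final, 3-fold ×10, DMSO ≤0.25%. Lytic HiBiT luminescence; PC = parental K562, NC = DMSO; 4PL IC50.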
On the technique in general: The HiBiT peptide binds its large partner to form an active luciferase.

In a further series the test system is Target C. Nature of the series: HiBiT protein abundance assay, Target C (K562 HiBiT knock-in). Particulars: HiBiT knock-in K562 cells, 24 hours, top dose 10 μM. The class given is cell-based, human. Summed up:
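K562 HiBiT knock-in cells (10000/well) were treated 24 h at 37° C with a 10-point 3-fold dilution series (top 10 μM final, ≤0.25% DMSO). HiBiT luminescence was read after lytic LgBiT detection. Percent response used unmodified K562 and DMSO-treated knock-in controls, and IC50 came from a four-parameter fit at 50% of untreated.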

The next series relates to K562 cells. In words: Cell Titer Glo 2.0 cell viability (toxicity) assay, K562. Particulars: 500 cells/well, 72 hours. (Cellular ATP, detected with luciferase, serves as a proxy for viable cell number.)
Where [1] appears, read: HTT canonical junction mRNA, RT-qPCR, read-out: HTT CJ (decrease in CJ mRNA levels, IC50).
[2] abbreviates: canonical junction qPCR panel, Table 4, read-out: HTT IC50 (decrease in CJ mRNA levels).
The mark [3] stands for this setting: MYB canonical junction mRNA, RT-qPCR, read-out: MYB CJ (decrease in CJ mRNA levels, IC50).
Setting [4] is: canonical junction qPCR panel, Table 4, read-out: MYB IC50 (decrease in CJ mRNA levels).

Read-outs that look alike come from different tables or passages of the source. Where only a bound is given, the exact number is not on record here.

Regarding `Cn1cc2cc(-c3ccc4nc(N5CC[C@H](NC6CC6)C5)ccc4n3)c(O)c(F)c2n1` (single isomer, unassigned) [Compound 306], the AC50 with HTT mRNA (RT-qPCR) and with MYB mRNA (RT-qPCR) was below 100 nM in each case. In addition, the IC50 with HTT mRNA (setting [1]), in the series on HTT mRNA (setting [2]), with MYB mRNA (setting [3]), in the series with MYB mRNA (setting [4]), with HTT and in the series on Target C was below 100 nM throughout. In the series on K562 cells, the “Effect of Exemplary Compounds on Cell Viability, K562” value (from here on “Effect of Exemplary Compounds”) is reported as “A (A represents <100 nM)”.
On to `Cc1nc2c(F)c(O)c(-c3ccc4nc(N5CC[C@@H](NC6CCC6)C5)ccc4n3)cc2o1` (single isomer, unassigned) [Compound 307], for which the concentration at half-maximal activity (AC50) in the series on HTT mRNA (RT-qPCR) and with MYB mRNA (RT-qPCR) was below 100 nM throughout. In addition, the half-maximal inhibitory concentration (IC50) in the series with HTT mRNA (setting [1]), in the series on HTT mRNA (setting [2]), in the series with MYB mRNA (setting [3]), with MYB mRNA (setting [4]), with HTT and with Target C was below 100 nM throughout. In the series on K562 cells, the “Effect of Exemplary Compounds” value was “A (A represents <100 nM)”.
Turning to `Cc1nc2c(F)c(O)c(-c3ccc4nc(N5CC[C@H](NC6CCC6)C5)ccc4n3)cc2o1` (single isomer, unassigned) [Compound 308], the AC50 with HTT mRNA (RT-qPCR) and with MYB mRNA (RT-qPCR) was below 100 nM throughout. The concentration for half-maximal inhibition (IC50) in the series with HTT mRNA (setting [1]), in the series with HTT mRNA (setting [2]), with MYB mRNA (setting [3]), with MYB mRNA (setting [4]), in the series on HTT and in the series with Target C was below 100 nM in each case. Besides, in the series on K562 cells, the “Effect of Exemplary Compounds” value is listed as “A (A represents <100 nM)”.
For `Cc1nc2c(C)c(O)c(-c3ccc4nc(N5CC[C@@H](NC6(C)CC6)C5)ccc4n3)cc2o1` (single isomer, unassigned) [Compound 310], the AC50 in the series on HTT mRNA (RT-qPCR) and in the series with MYB mRNA (RT-qPCR) was below 100 nM in each case. The IC50 in the series with HTT mRNA (setting [1]), in the series on HTT mRNA (setting [2]), in the series with MYB mRNA (setting [3]), in the series with MYB mRNA (setting [4]), in the series with HTT and with Target C was below 100 nM each time. Also, in the series with K562 cells, the “Effect of Exemplary Compounds” value is listed as “A (A represents <100 nM)”.
Consider `Cc1nc2c(C)c(O)c(-c3ccc4nc(N5CC[C@H](NC6(C)CC6)C5)ccc4n3)cc2o1` (single isomer, unassigned) [Compound 311], for which the values for the AC50 with HTT mRNA (RT-qPCR) and in the series on MYB mRNA (RT-qPCR) were below 100 nM and 100 to 1000 nM, respectively. Further, the IC50 in the series with HTT mRNA (setting [1]) is below 100 nM; with HTT mRNA (setting [2]), below 100 nM; with MYB mRNA (setting [3]), 100 to 1000 nM; in the series on MYB mRNA (setting [4]), 100 to 1000 nM; in the series on HTT, below 100 nM; in the series with Target C, below 100 nM. Besides, in the series on K562 cells, the “Effect of Exemplary Compounds” value is on record as “C (C represents 1000-9999 nM)”.
As for `Cc1nc2c(C)c(O)c(-c3ccc4nc(N5CC[C@@H](NC(C)C)C5)ccc4n3)cc2o1` (single isomer, unassigned) [Compound 313], the half-maximal activity concentration (AC50) with HTT mRNA (RT-qPCR) and in the series with MYB mRNA (RT-qPCR) was below 100 nM in each case. The IC50 with HTT mRNA (setting [1]), with HTT mRNA (setting [2]), with MYB mRNA (setting [3]), with MYB mRNA (setting [4]), in the series with HTT and in the series on Target C was below 100 nM each time. Moreover, the “Effect of Exemplary Compounds” value in the series with K562 cells was “A (A represents <100 nM)”.
For the compound `Cc1nc2c(C)c(O)c(-c3ccc4nc(N5CC[C@H](NC(C)C)C5)ccc4n3)cc2o1` (single isomer, unassigned) [Compound 314], the AC50 in the series with HTT mRNA (RT-qPCR) and with MYB mRNA (RT-qPCR) was below 100 nM each time. Moreover, the IC50 with HTT mRNA (setting [1]), in the series on HTT mRNA (setting [2]), in the series with MYB mRNA (setting [3]), with MYB mRNA (setting [4]), with HTT and in the series on Target C was below 100 nM each time. The “Effect of Exemplary Compounds” value in the series on K562 cells is on record as “A (A represents <100 nM)”.

The values above are taken from US20250092065A1, “2-(INDAZOL-5-YL)-6-(PIPERIDIN-4-YL)-1,7-NAPHTHYRIDINE DERIVATIVES AND RELATED COMPOUNDS AS MODULATORS FOR SPLICING NUCLEIC ACIDS AND FOR THE TREATMENT OF PROLIFERATIVE DISEASES” (REMIX THERAPEUTICS INC., priority 2022, published 2025).
